Results reported in paper PMC10724293, “New ruthenium-xanthoxylin complex eliminates colorectal cancer stem cells by targeting the heat shock protein 90 chaperone” (Cell Death & Disease, 2023).

Legend:
JUKART = test: Alamar blue cytotoxicity assay; type: cell-based, human; conditions: 72 h, read-out: IC50 and 95%CI
Protocol: (§1) The Alamar blue assay was used to determine cell viability as previously described. Cells were seeded into 96-well plates at a density of 7 × 10^3 cells per well for adherent cells or 3 × 10^4 cells per well for suspended cells. The drug was added to each well after 24 h of incubation for adherent cells or immediately for suspended cells and incubated for an additional 72 h. […] Each well received 100 µM resazurin (Sigma-Aldrich Co. St. Louis, MO, United States) four (for cell lines) or 24 (for primary culture) h before the end of the incubation. A SpectraMax 190 Microplate Reader (Molecular Devices, Sunnyvale, CA, USA) was used to measure absorbance at 570 and 600 nm.

CAL 27 = test: Alamar blue cytotoxicity assay; type: cell-based, human; conditions: 72 h, read-out: IC50 and 95%CI
Protocol: as §1

A549 = test: Alamar blue cytotoxicity assay; type: cell-based, human; conditions: 72 h, read-out: IC50 and 95%CI
Protocol: as §1

SCC-9 = test: Alamar blue cytotoxicity assay; type: cell-based, human; conditions: 72 h, read-out: IC50 and 95%CI
Protocol: as §1

OVCAR-3 = test: Alamar blue cytotoxicity assay; type: cell-based, human; conditions: 72 h, read-out: IC50 and 95%CI
Protocol: as §1

H1299 = test: Alamar blue cytotoxicity assay; type: cell-based, human; conditions: 72 h, read-out: IC50 and 95%CI
Protocol: as §1

DU 145 = test: Alamar blue cytotoxicity assay; type: cell-based, human; conditions: 72 h, read-out: IC50 and 95%CI
Protocol: as §1

PANC-1 = test: Alamar blue cytotoxicity assay; type: cell-based, human; conditions: 72 h, read-out: IC50 and 95%CI
Protocol: as §1

THP-1 = test: Alamar blue cytotoxicity assay; type: cell-based, human; conditions: 72 h, read-out: IC50 and 95%CI
Protocol: as §1

NB4 = test: Alamar blue cytotoxicity assay; type: cell-based, human; conditions: 72 h, read-out: IC50 and 95%CI
Protocol: as §1

SCC-25 = test: Alamar blue cytotoxicity assay; type: cell-based, human; conditions: 72 h, read-out: IC50 and 95%CI
Protocol: as §1

HepG2 = test: Alamar blue cytotoxicity assay; type: cell-based, human; conditions: 72 h, read-out: IC50 and 95%CI
Protocol: as §1

HL-60 = test: Alamar blue cytotoxicity assay; type: cell-based, human; conditions: 72 h, read-out: IC50 and 95%CI
Protocol: as §1

SCC4 = test: Alamar blue cytotoxicity assay; type: cell-based, human; conditions: 72 h, read-out: IC50 and 95%CI
Protocol: as §1

HCT116 = test: Alamar blue cytotoxicity assay; type: cell-based, human; conditions: 72 h, read-out: IC50 and 95%CI
Protocol: as §1

HCT116 cells = test: CRC tumor growth xenograft model; type: in vivo, C. B-17 SCID mice; conditions: 2 mg/kg i.p. once a day for 2 weeks; control 0.81 ± 0.09 g
Protocol: HCT116 cells (10^7 cells/500 μl) were inoculated subcutaneously into the left front armpit of mice, as previously reported. The animals were then treated intraperitoneally (200 μl/animal) once a day for 2 weeks. […] The animals were euthanized with an anesthetic overdose (thiopental, 100 mg/kg) 1 day after treatment ended, and tumors were excised, weighed, and processed for histological analysis. The inhibition ratio (percent) was calculated as follows: inhibition ratio (percent) = [(A − B)/A] × 100, where A is the average tumor weight of the negative control and B is the treated group.

BJ = test: Alamar blue cytotoxicity assay, noncancerous cells; type: cell-based, human; conditions: 72 h, read-out: IC50 and 95%CI
Protocol: as §1

PBMC = test: Alamar blue cytotoxicity assay, noncancerous cells; type: cell-based, human; conditions: 72 h, read-out: IC50 and 95%CI
Protocol: as §1

MRC-5 = test: Alamar blue cytotoxicity assay, noncancerous cells; type: cell-based, human; conditions: MRC-5 noncancerous cells, 72 h, read-out: IC50 and 95%CI
Protocol: as §1

BAD KO SV40 MEF = test: Alamar blue survival curves and cell death; type: cell-based, mouse; conditions: BAD KO SV40 MEF vs WT SV40 MEF; 10 μM, 48 h
Protocol: as §1
For apoptosis detection or functional assays, cell viability was quantified using annexin V-FITC/PI (FITC Annexin V Apoptosis Detection Kit I, BD Biosciences, San Jose, CA, USA) or YO-PRO-1/PI (Sigma-Aldrich Co.). The following inhibitors were used: chloroquine (autophagy inhibitor, Ipca Laboratories, Mumbai, MH, India); 3-methyladenine (autophagy inhibitor, Sigma-Aldrich Co.); and lithium chloride (Wnt activator, Sigma-Aldrich Co.).

## cis-[Ru(phen)2(xant)](PF6) [RXC]
JUKART
  IC50: 4.08 µM
CAL 27
  IC50: 5.4 µM
A549
  IC50: 7.03 µM
SCC-9
  IC50: 2.81 µM
OVCAR-3
  IC50: 1.47 µM
H1299
  IC50: 10.9 µM
DU 145
  IC50: 4.17 µM
PANC-1
  IC50: 11.8 µM
THP-1
  IC50: 2.8 µM
NB4
  IC50: 3.38 µM
SCC-25
  IC50: 10.2 µM
HepG2
  IC50: 6.28 µM
HL-60
  IC50: 3.2 µM
SCC4
  IC50: 1.89 µM
HCT116
  IC50: 6.5 µM
2 mg/kg, one animal
  lung histology: hemorrhage with hemosiderin deposits
RXC 2 mg/kg, DOX 0.8 mg/kg, i.p. once a day for 2 weeks
  hematological analysis: reduction in erythrocytes
RXC 2 mg/kg, DOX 0.8 mg/kg, i.p. once a day for 2 weeks, n = 15 per group
  animals died during the treatment: four
RXC 2 mg/kg, DOX 0.8 mg/kg, i.p. once a day for 2 weeks, p < 0.05
  body weight: decrease in body weight
RXC 2 mg/kg, DOX 0.8 mg/kg, mainly in treated animals
  liver histology: focal areas of hepatocyte coagulation necrosis
RXC 2 mg/kg, DOX 0.8 mg/kg, more evident than in control
  kidney histology: focal areas of coagulation necrosis of the renal cortex tubules
HCT116 cells
  mean weight of tumors: 0.6 ± 0.05 g
BJ
  IC50: 0.76 µM
PBMC
  IC50: 4.93 µM
MRC-5
  IC50: 21.4 µM
BAD KO SV40 MEF
  role of the proapoptotic protein BAD in induced cell death: BAD-independent cell death
